{
  "source": "patent US20230233553A1",
  "about": "“A NEW COMBINATION THERAPY FOR THE TREATMENT OF FGFR3- RELATED SKELETAL DISEASE” (INSERM (INSTITUT NATIONAL DE LA SANTÉ ET DE LA RECHERCHE …, priority 2020, published 2023)",
  "key": {"NPR2 [1]": {"system": "NPR2", "conditions": "cantharidin 100 μM (Shuhaibar et al., 2017); cited from earlier work"}, "Fgfr3^Y367C/+ femurs": {"system": "Fgfr3^Y367C/+ femurs", "test": "Ex vivo culture of fetal femurs from Fgfr3^Y367C/+ mice (growth in length and area)", "format": "cell-based, mouse", "conditions": "E16.5 Fgfr3^Y367C/+ femurs, 6 day culture; BMN-111 0.1 μM, LB-100 10 μM", "description": "(§1) FIG. 1. LB-100 and BMN-111 act synergistically to stimulate growth in fetal femurs from Fgfr3^Y367C/+ mice.(A) Diagram showing sites of action of LB-100 and BMN-111. (B) Representative photographs of fetal femurs from E16.5 day old Fgfr3+/+ (wildtype) and Fgfr3^Y367+ mice, before (D0) and after a 6 day (D6) culture with the indicated treatments. […] For all experiments, the concentration of BMN-111 was 0.1 μM, and the concentration of LB-100 was 10 μM. Symbols in graphs C-E indicate individual bones (n=4−10). Bars represent mean ±SEM and data were analyzed by unpaired two-tailed t-tests. Asterisks indicate significant differences (p<0.05) between indicated groups; n.s. indicates no significant difference (p>0.05).\n(§2) Femurs were cultured ex vivo, as described previously (Jonquoy et al., 2012; Lorget et al., 2012). The left femur was cultured in the presence of LB-100 (10 μM), BMN-111 (0.1 μM), or LB-100 (10 μM)+BMN-111 (0.1 μM), and compared with the non-treated right femur. The bone's length was measured on day 0 (D0) and day 6 (D6). Images were captured with an Olympus SZX12 stereo microscope and quantified using cellSens software (Olympus). The results were expressed as the increase in femur length or area (D6-D0) in the presence or absence of LB-100, BMN-111, or LB-100+BMN-111."}, "Fgfr3+/+ femurs": {"system": "Fgfr3+/+ femurs", "test": "Ex vivo culture of fetal femurs from Fgfr3+/+ mice (growth in length and area)", "format": "cell-based, mouse", "conditions": "BMN-111 0.1 μM, LB-100 10 μM, 6 day culture", "description": "as §1, §2"}, "NPR2 [2]": {"system": "NPR2", "test": "cGMP production in tibia growth plates using cGi500 FRET sensor", "format": "cell-based, mouse", "conditions": "for CNP-induced cGMP increase after FGF treatment: then FGF 80 min, newborn mouse tibia; for cGMP (CFP/YFP emission ratio from cGi500) on perfusion across the growth plate: newborn mouse tibia growth plate", "description": "cGMP production in chondrocytes within intact growth plates was measured using tibias dissected from newborn mice (0-1 day old) that globally expressed one or two copies of the cGi500 FRET sensor, as previously described (Shuhaibar et al., 2017).Tibias were dissected and cultured overnight on Millicell membranes in BGJb medium with 0.1% bovine serum albumin, 100 units/ml of penicillin, and 100 μg/ml of streptomycin. In preparation for imaging, each tibia was slit to remove the tissue overlying the growth plate. Where indicated, the tibia was incubated in LB-100, cantharidin, or control medium, followed by addition of FGF18 (0.5 μg/ml+1 μg/ml heparin) or control medium containing heparin only. The tibia was then placed in a perfusion slide and the growth plate was imaged on the stage of a confocal microscope, as previously described (Shuhaibar et al., 2017).\nNPR2 activity in chondrocytes of intact growth plates was measured as previously described, using mice expressing a FRET sensor for cGMP, cGi500 (Shuhaibar et al., 2017). Tibias were isolated from newborn mice, and the overlying tissue was excised to expose the growth plate for confocal imaging (Data not shown). When the NPR2 agonist C-type natriuretic peptide (CNP) was perfused across the growth plate, the CFP/YFP emission ratio from cGi500 increased, indicating an increase in cGMP, due to stimulation of the guanylyl cyclase activity of NPR2 (Data not shown).\nTo investigate if LB-100 counteracts the inactivation of NPR2 by FGF, we used the following protocol:Tibias expressing cGi500 were preincubated with solutions of 1, 5 or 10 μM LB-100 for 60 minutes. FGF was then added and the incubation was continued for an additional 80 minutes. Following these incubations, the tibia was placed in a perfusion slide for confocal imaging, and cGMP production by NPR2 was monitored by measuring the increase in CFP/YFP emission ratio in response to CNP."}, "[3]": {"system": "children 5 to 14 years of age with achondroplasia", "conditions": "for up to 42 months; Savarirayan et al., 2019; cited from earlier work"}, "[4]": {"system": "growth plates of Fgfr3^Y367C/+ femurs", "test": "Histology and immunohistochemistry of growth plates of ex vivo cultured Fgfr3^Y367C/+ femurs", "format": "cell-based, mouse", "description": "FIG. 2. Dual action of LB-100 and BMN-111 improves chondrocyte differentiation in growth plates of ex-vivo cultured Fgfr3^Y367C/+ femurs. Mean area of individual hypertrophic chondrocytes in proximal growth plates of femurs treated (n=4−6 bones measured for each condition, with 54-137 cells measured for each bone). Data were analyzed by one-way ANOVA followed by the Holm-Sidak multiple comparison test (*p<0.05, **p<0.01, ****p<0.0001).\nFetal femur (E16.5) explants were fixed in 4% paraformaldehyde, decalcified with EDTA (0.4 M), and embedded in paraffin. Serial 5 μm sections were stained with hematoxylin-eosin-safran (HES) reagent, using standard protocols. For immunohistochemical assessment, sections were labeled with the following antibodies and a Dako Envision Kit: anti-COL X (BIOCYC, N.2031501005; 1:50 dilution), anti-phosphorylated ERK1-2 ([…]) (Cell Signaling Technology, #4370; 1:100 dilution), and anti-S0X9 (polyclonal antibody, Santa Cruz Biotechnology Inc., catalog D0609; dilution 1:75). Images were captured with an Olympus PD70-IX2-UCB microscope and quantified using cellSens software.\nWe measured the total area occupied by chondrocytes within the whole growth plate and the area occupied by COLX-positive chondrocytes. The area for proliferating chondrocytes was calculated by subtracting the COLX-positive area from the whole growth plate area."}, "[5]": {"conditions": "Chung et al., 2017; cited from earlier work"}, "NPR2 [6]": {"system": "NPR2", "test": "Phos-tag gel electrophoresis / western blot of NPR2 in rib chondrocyte cultures", "format": "cell-based, mouse", "description": "Rib cages were dissected from newborn (0-2 day old) mice, and trimmed to remove the skin, spinal cord, and soft tissue around the sternum and ribs. Non-chondrocyte tissue was digested away by incubating the rib cages in 2 mg/ml pronase in PBS for one hour in a shaking water bath at 37° C., and then incubated in 3 mg/ml collagenase D in medium for one hour. After washing, the rib cages were transferred to a dish with fresh collagenase D and incubated for 5-6 hours, with trituration at 2 hours, to release the chondrocytes. The isolated cells were passed through a 40 um nylon cell strainer, resuspended in DMEM/F12 medium with 10% fetal bovine serum, 100 units/ml of penicillin, and 100 μg/m1 of streptomycin, and plated in 35 mm tissue culture dishes, at a cell density corresponding to one newborn mouse per plate. The cells were cultured for 3 days, at which point they were ˜75-90% confluent, then washed with PBS and incubated in serum-free medium for 18 hours. The cells were then incubated in LB-100 (10 μM), or control medium, followed by addition of FGF18 (0.5 ug/ml+1 μg/ml heparin) or control medium containing heparin only.\nAt end of the incubation period, dishes were washed in PBS and cells lysed in 250 μl of 1% SDS containing 10 mM sodium fluoride, 1 μM microcystin, and Roche protease inhibitor cocktail. Protein content was determined by a BCA assay. […]"}, "PPP1": {"system": "PPP1", "conditions": "same conditions, DiFMUP; Richard Honkanen, personal communication; cited from earlier work"}, "PPPS": {"molecular_target": "T1, PPPS (Homo sapiens, UniProt P53041)", "T1 sequence (P53041 1-499)": "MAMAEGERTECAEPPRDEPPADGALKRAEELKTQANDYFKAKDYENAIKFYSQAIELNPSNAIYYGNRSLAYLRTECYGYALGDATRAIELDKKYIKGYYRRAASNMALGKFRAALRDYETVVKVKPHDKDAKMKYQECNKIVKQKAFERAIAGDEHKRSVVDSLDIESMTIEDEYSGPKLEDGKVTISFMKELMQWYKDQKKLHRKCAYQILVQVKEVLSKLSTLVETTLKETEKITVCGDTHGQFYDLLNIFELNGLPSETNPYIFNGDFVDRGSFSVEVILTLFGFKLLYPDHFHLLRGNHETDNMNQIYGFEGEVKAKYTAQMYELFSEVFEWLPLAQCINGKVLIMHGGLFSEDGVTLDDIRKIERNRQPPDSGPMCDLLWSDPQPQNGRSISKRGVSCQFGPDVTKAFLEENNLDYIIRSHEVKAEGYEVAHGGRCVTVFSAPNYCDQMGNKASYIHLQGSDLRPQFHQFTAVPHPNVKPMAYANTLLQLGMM", "conditions": "in vitro, DiFMUP as substrate (D'Arcy et al., 2019); cited from earlier work"}, "PPP2": {"molecular_target": "PPP2 (Homo sapiens, UniProt P67775)", "sequence (P67775 whole entry)": "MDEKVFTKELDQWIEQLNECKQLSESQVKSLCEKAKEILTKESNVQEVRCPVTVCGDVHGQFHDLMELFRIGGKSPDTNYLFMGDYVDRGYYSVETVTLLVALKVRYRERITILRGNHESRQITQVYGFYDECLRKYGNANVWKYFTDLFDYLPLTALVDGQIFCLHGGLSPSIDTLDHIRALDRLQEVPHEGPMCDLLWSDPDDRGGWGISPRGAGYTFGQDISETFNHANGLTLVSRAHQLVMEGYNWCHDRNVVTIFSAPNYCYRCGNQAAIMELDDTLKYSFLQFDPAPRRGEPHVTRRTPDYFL", "conditions": "in vitro, DiFMUP as substrate (D'Arcy et al., 2019); cited from earlier work"}},
  "data": [
    {"molecule": "C[C@@]12C(=O)OC(=O)[C@]1(C)[C@H]1CC[C@@H]2O1", "note": "[cantharidin]", "values": [
      {"measurement": "Inactivation of NPR2 in growth plate chondrocytes by FGF", "setting": "NPR2 [1]", "result": "inhibits the inactivation of NPR2 in growth plate chondrocytes by FGF"}
    ]},
    {"molecule": "[Cyc(23,39)]H2NPGQEHPNARKYKGANKKGLSKGCFGLKLDRIGSMSGLGC—OH [BMN-111]", "values": [
      {"measurement": "Mean rate of increase in bone length relative to vehicle/untreated bones (growth rate ratio)", "setting": "Fgfr3^Y367C/+ femurs", "result": 1.77},
      {"measurement": "Rate of increase of total bone and cartilage area relative to control (growth rate ratio)", "setting": "Fgfr3^Y367C/+ femurs", "result": 1.51},
      {"measurement": "Rate of bone growth (length and area)", "setting": "Fgfr3+/+ femurs", "result": "increased the rate of bone growth"},
      {"measurement": "NPR2 activity in growth plate chondrocytes", "setting": "NPR2 [2]; BMN-111 0.1 μM", "result": "stimulated NPR2 activity"},
      {"measurement": "Annualized growth velocity in phase 2", "setting": "[3]", "result": "sustained increase in annualized growth velocity"},
      {"measurement": "Size of Fgfr3^Y367C/+ hypertrophic chondrocytes", "setting": "[4]; COLX immunostaining, ex vivo cultured femurs", "result": "increased the size"},
      {"measurement": "Increase of total proliferative growth plate area of the femur over vehicle", "setting": "[4]; Fgfr3^Y367C/+ femurs, average", "result": 20, "unit": "%"}
    ]},
    {"molecule": "CN1CCN(C(=O)C2C3CCC(O3)C2C(=O)O)CC1", "note": "(stereo not drawn) [LB-100, 3-(4-methylpiperazine-1-carbonyl)-7-oxabicyclo[2.2.1]heptane-2-carboxylic acid]", "values": [
      {"measurement": "Toxicity in phase I clinical trial", "setting": "[5]", "result": "little toxicity"},
      {"measurement": "Mean rate of increase in bone length relative to vehicle/untreated bones (growth rate ratio)", "setting": "Fgfr3^Y367C/+ femurs", "result": 1.04},
      {"measurement": "Rate of increase of total bone and cartilage area relative to control (growth rate ratio)", "setting": "Fgfr3^Y367C/+ femurs", "result": 1.40},
      {"measurement": "Cell morphology of rib chondrocytes", "setting": "NPR2 [6]; 1 hour incubation with 10 μM LB-100", "result": "did not cause any visible change in cell morphology"},
      {"measurement": "NPR2 dephosphorylation in response to FGF", "setting": "NPR2 [6]; preincubation with 10 μM LB-100, primary rib chondrocytes", "result": "only partial"},
      {"measurement": "CNP-induced cGMP increase after FGF treatment", "setting": "NPR2 [2]; 1 μM LB-100 preincubation 60 min", "result": "had no effect"},
      {"measurement": "Effectiveness in counteracting NPR2 inactivation by FGF compared with cantharidin", "setting": "NPR2 [2]; 5 μM LB-100 equivalent to 10 μM cantharidin", "result": "more effective than cantharidin"},
      {"measurement": "CNP-induced cGMP increase after FGF treatment", "setting": "NPR2 [2]; 5 μM LB-100 preincubation 60 min", "result": "enhanced"},
      {"measurement": "Chondrocyte morphology in live growth plate (toxicity)", "setting": "NPR2 [2]; 10 μM LB-100, confocal microscopy", "result": "no visible change in chondrocyte morphology"},
      {"measurement": "CNP-induced cGMP increase after FGF treatment", "setting": "NPR2 [2]; 10 μM LB-100 preincubation 60 min", "result": "enhanced"},
      {"measurement": "IC50", "setting": "PPP1", "result": "1800 ± 22", "unit": "nM"},
      {"measurement": "IC50", "setting": "PPPS", "result": "1820 ± 93", "unit": "nM"},
      {"measurement": "IC50", "setting": "PPP2", "result": "390 ± 13", "unit": "nM"}
    ]},
    {"molecule": "CCN(CC)/[N+]([O-])=N/O", "note": "[DEA/NO]", "values": [
      {"measurement": "cGMP (CFP/YFP emission ratio from cGi500) on perfusion across the growth plate", "setting": "NPR2 [2]", "result": "did not increase cGMP"}
    ]},
    {"molecule": "ANP: A-type natriuretic peptide, which activates the NPR1 guanylyl cyclase", "values": [
      {"measurement": "cGMP (CFP/YFP emission ratio from cGi500) on perfusion across the growth plate", "setting": "NPR2 [2]", "result": "did not increase cGMP"}
    ]},
    {"molecule": "FGF18: fibroblast growth factor used with heparin to activate FGF receptor (protein, UniProt O76093 28-207, looked up) Fibroblast growth factor 18: EENVDFRIHVENQTRARDDVSRKQLRLYQLYSRTSGKHIQVLGRRISARGEDGDKYAQLLVETDTFGSQVRIKGKETEFYLCMNRKGKLVGKPDGTSKECVFIEKVLENNYTALMSAKYSGWYVGFTKKGRPRKGPKTRENQQDVHFMKRYPKGQPELQKPFKYTTVTKRSRRIRPTHPA", "values": [
      {"measurement": "cGMP increase in response to CNP perfusion after exposure to FGF18", "setting": "NPR2 [2]; FGF18 0.5 μg/ml + 1 μg/ml heparin", "result": "suppressed the cGMP increase in response to CNP perfusion"}
    ]}
  ]
}
